Data reported in ChEMBL document CHEMBL3797202, “Novel Oxindole Sulfonamides and Sulfamides: EPZ031686, the First Orally Bioavailable Small Molecule SMYD3 Inhibitor” (ACS Med Chem Lett, 2016).

Experiments:
[1] = molecular target: T1, Histone-lysine N-methyltransferase SMYD3 (Homo sapiens, UniProt Q9H7B4); test: Inhibition of full length N-terminal His-tagged SMYD3 (1 to 428 residues) (unknown origin) expressed in Escherichia coli using N-terminal GST-tagged MEKK2 as substrate preincubated for 30 mins followed by substrate addition by scintillation proximity assay in presence of [3H]SAM
T1 sequence (Q9H7B4 whole entry): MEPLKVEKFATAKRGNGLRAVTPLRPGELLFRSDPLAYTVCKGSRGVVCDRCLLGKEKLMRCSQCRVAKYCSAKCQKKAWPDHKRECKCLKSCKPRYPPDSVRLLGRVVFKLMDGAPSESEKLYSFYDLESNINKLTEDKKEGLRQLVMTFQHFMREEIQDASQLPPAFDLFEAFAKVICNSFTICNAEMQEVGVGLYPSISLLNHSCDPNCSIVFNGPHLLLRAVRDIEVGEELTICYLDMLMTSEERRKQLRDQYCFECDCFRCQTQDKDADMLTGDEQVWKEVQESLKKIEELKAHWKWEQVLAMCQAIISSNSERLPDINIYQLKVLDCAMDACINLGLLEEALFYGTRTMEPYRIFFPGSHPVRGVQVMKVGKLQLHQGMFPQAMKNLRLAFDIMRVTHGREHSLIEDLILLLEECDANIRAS

[2] = molecular target: T1, Histone-lysine N-methyltransferase SMYD3; test: Inhibition of human SMYD3 expressed in HEK293T/17 cells using FLAG-tagged MEKK2 as substrate incubated for 30 mins in low air flow area followed by incubation for 24 hrs at 37 degC by Western blot analysis; assay type: cell-based, HEK-293T

| SMILES | IC50 [1] [nM] | IC50 [2] [nM] |
| --- | --- | --- |
| O=C1Cc2cc(C(=O)N[C@H]3C[C@H]4CC[C@@H](C3)N4S(=O)(=O)CC3CCN(CCCO)CC3)c(Cl)cc2N1 | 2 | – |
| O=C1Cc2cc(C(=O)NC3CCN(S(=O)(=O)CC4CCNCC4)CC3)ccc2N1 | 70 | > 10000 |
| NC1CCN(S(=O)(=O)N2[C@@H]3CC[C@H]2C[C@@H](NC(=O)c2cc4c(cc2Cl)NC(=O)C4)C3)CC1 | 1 | 1100 |
| CN(C)C1CCN(S(=O)(=O)N2[C@@H]3CC[C@H]2C[C@@H](NC(=O)c2cc4c(cc2Cl)NC(=O)C4)C3)CC1 | 3 | – |
| Cc1cc2c(cc1C(=O)N[C@H]1C[C@H]3CC[C@@H](C1)N3S(=O)(=O)N1CCC(N)CC1)CC(=O)N2 | – | 410 |
| NC1CCN(S(=O)(=O)N2[C@@H]3CC[C@H]2C[C@@H](NC(=O)c2ccc4c(c2)CC(=O)N4)C3)CC1 | 1 | – |
| N[C@H]1CC[C@H](S(=O)(=O)N2[C@@H]3CC[C@H]2C[C@@H](NC(=O)c2ccc4c(c2)CC(=O)N4)C3)CC1 | 4 | 2200 |
| CN1CCC(CS(=O)(=O)N2[C@@H]3CC[C@H]2C[C@@H](NC(=O)c2ccc4c(c2)CC(=O)N4)C3)CC1 | 1 | – |
| NCCCS(=O)(=O)N1CCC(NC(=O)c2ccc3c(c2)CC(=O)N3)CC1 | – | > 10000 |
| O=C1Cc2cc(C(=O)N[C@H]3C[C@H]4CC[C@@H](C3)N4S(=O)(=O)C[C@H]3CCCNC3)c(Cl)cc2N1 | 4 | 1300 |
| NC1CCN(S(=O)(=O)N2[C@@H]3CC[C@H]2C[C@@H](NC(=O)c2cc4c(cc2F)NC(=O)C4)C3)CC1 | 5 | – |
| CNC1CCN(S(=O)(=O)N2[C@@H]3CC[C@H]2C[C@@H](NC(=O)c2cc4c(cc2Cl)NC(=O)C4)C3)CC1 | 2 | – |
| NCCCS(=O)(=O)N1CCC(NC(=O)c2cc3c(cc2Cl)NC(=O)C3)CC1 | 80 | – |
| O=C1Cc2cc(C(=O)N[C@H]3C[C@H]4CC[C@@H](C3)N4S(=O)(=O)CC3CCNCC3)c(Cl)cc2N1 | 4 | 3200 |
